Reference: the supplement of paper PMC10307832

Key:
Experiment in all cases: relative viability (nuclei count vs DMSO), 5 days (fraction); higher = more cells survive
R406 = compound: COc1cc(Nc2ncc(F)c(Nc3ccc4c(n3)NC(=O)C(C)(C)O4)n2)cc(OC)c1OC [R406]
Outline: (§1)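 In 1536-well plates, lung cancer cell lines rested overnight at 37 °C before five library-drug doses (not always all listed), √10 apart, were pinned onto vehicle-anchored plates. Nuclei were counted with MetaXpress from 4× Hoechst images taken after 5 days without medium change. Viability compares treated-well with vehicle-well nuclei as a median over plates, and plates needed control CV below 25% plus at least one doubling to pass.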

Daporinad = compound: O=C(/C=C/c1cccnc1)NCCCCC1CCN(C(=O)c2ccccc2)CC1 [Daporinad]
Outline: as §1

R406 + Alpelisib = compound: COc1cc(Nc2ncc(F)c(Nc3ccc4c(n3)NC(=O)C(C)(C)O4)n2)cc(OC)c1OC [R406] + Cc1nc(NC(=O)N2CCC[C@H]2C(N)=O)sc1-c1ccnc(C(C)(C)C(F)(F)F)c1 [Alpelisib] (partner 2 µM)
Outline: (§2)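 Nuclei were stained with Hoechst during a one-step fixation (final 0.05% Triton X-100, 1% formaldehyde, 1 ug/ml Hoechst) carried out 5 days after dosing, then counted on 4× images. The cells, lung cancer lines in 1536-well plates, had been dosed by pin tool the day after seeding with one drug alone or a fixed anchor-drug dose plus five library-drug doses (not always all listed) in √10 steps. Relative viability is the nuclei count in treated wells divided by that in vehicle wells, and each value is the median of duplicate plates.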

Daporinad + Bortezomib = compound: O=C(/C=C/c1cccnc1)NCCCCC1CCN(C(=O)c2ccccc2)CC1 [Daporinad] + CC(C)C[C@H](NC(=O)[C@H](Cc1ccccc1)NC(=O)c1cnccn1)B(O)O [Bortezomib] (partner 0.002 µM)
Outline: as §2

Cell Line | relative viability (R406; 0.08 µM) | relative viability (R406; 0.253 µM) | relative viability (R406; 0.8 µM) | relative viability (R406; 2.53 µM) | relative viability (R406; 8 µM) | relative viability (Daporinad; 0.0005 µM) | relative viability (Daporinad; 0.001581 µM) | relative viability (Daporinad; 0.005 µM) | relative viability (Daporinad; 0.01581 µM) | relative viability (R406 + Alpelisib; first compound 0.08 µM) | relative viability (R406 + Alpelisib; first compound 0.253 µM) | relative viability (R406 + Alpelisib; first compound 0.8 µM) | relative viability (R406 + Alpelisib; first compound 2.53 µM) | relative viability (R406 + Alpelisib; first compound 8 µM) | relative viability (Daporinad + Bortezomib; first compound 0.0005 µM) | relative viability (Daporinad + Bortezomib; first compound 0.001581 µM) | relative viability (Daporinad + Bortezomib; first compound 0.005 µM) | relative viability (Daporinad + Bortezomib; first compound 0.01581 µM)
SW 1573 | 1.02 | 1.11 | 1.11 | 0.803 | 0.543 | 1.02 | 1.15 | 0.929 | 0.678 | 0.753 | 1.02 | 0.739 | 0.673 | 0.494 | 1.12 | 0.769 | 1.05 | 0.714
NCI-H1299 | 1 | 1.08 | 1.07 | 1.06 | 0.744 | 1.01 | 1.04 | 1.04 | 1.04 | 1 | 1.02 | 1.11 | 1.12 | 1.09 | 1.02 | 1.02 | 1.04 | 1.04
NCI-H2009 | 0.975 | 1.04 | 1.11 | 0.853 | 0.376 | 0.918 | 1.08 | 1.07 | 0.905 | 1.18 | 1.22 | 1.24 | 1.05 | 1.05 | 0.887 | 1.09 | 1.06 | 0.846
LOU-NH91 | 0.916 | 0.963 | 0.928 | 0.512 | 0.576 | 0.996 | 1.05 | 1.14 | 1.24 | 0.726 | 0.718 | 0.789 | 0.51 | 0.449 | 0.532 | 0.465 | 0.559 | 0.559
NCI-H2405 | 0.98 | 1.11 | 1.06 | 0.746 | 0.382 | 1.08 | 1.12 | 1.02 | 0.509 | 0.751 | 0.756 | 0.795 | 0.466 | 0.205 | 1 | 0.772 | 1.02 | 0.612
LCLC-97TM1 | 0.885 | 1.18 | 0.964 | 0.804 | 0.632 | 0.948 | 1.15 | 1.07 | 0.941 | 0.209 | 0.265 | 0.267 | 0.202 | 0.256 | 0.302 | 0.604 | 0.657 | 0.533
NCI-H647 | 0.943 | 1.13 | 1.1 | 0.538 | 0.233 | 0.914 | 1.11 | 1.07 | 1.05 | 0.977 | 1.03 | 1.52 | 0.461 | 0.12 | 1.03 | 1.04 | 1.14 | 1.01
NCI-H838 | 0.911 | 1.08 | 1.11 | 0.544 | 0.214 | 0.999 | 1.03 | 1.04 | 0.657 | 0.971 | 1.11 | 1.16 | 0.547 | 0.541 | 0.795 | 1.2 | 0.828 | 0.443
H3255 | 0.943 | 1.16 | 0.989 | 0.859 | 0.873 | 0.842 | 1 | 1.06 | 1.19 | 0.693 | 0.746 | 0.623 | 0.511 | 0.418 | 0.642 | 0.806 | 0.865 | 0.888
NCI-H1437 | 0.994 | 1.08 | 1.06 | 0.884 | 0.622 | 0.891 | 1.01 | 1.01 | 0.99 | 1 | 1.09 | 1.17 | 0.928 | 0.487 | 0.414 | 0.629 | 0.561 | 0.554
LU99A | 0.984 | 0.983 | 1.22 | 0.796 | 0.824 | 0.975 | 1.09 | 1.08 | 0.966 | 0.462 | 0.468 | 0.617 |  | 0.193 | 1.11 | 1.17 | 1.36 | 1.44
HCC-827 | 1.09 | 1.07 | 1.1 | 0.903 | 0.672 | 1.02 | 1.06 | 1.03 | 1.1 | 1.04 | 0.903 | 1.03 | 0.827 | 0.282 | 1.06 | 0.965 | 1.14 | 1.13
HCC-366 | 1 | 1.1 | 1.03 | 0.432 | 0.565 | 1.04 | 1.01 | 1.02 | 1.03 | 0.41 | 0.439 | 0.441 |  | 0.0784 | 0.971 | 1.1 | 1.12 | 1.04
BEN | 0.862 | 1.24 | 1.03 | 1.05 | 0.832 | 0.962 | 1.04 | 0.969 | 1.31 | 1.08 | 1.3 | 1.07 | 0.99 | 0.766 | 0.805 | 0.796 | 1.04 | 1.12
NCI-H23 | 0.948 | 1.21 | 1.1 | 0.264 | 0.252 | 1.03 | 1.06 | 0.973 | 0.53 | 0.638 | 0.759 | 0.786 | 0.732 | 0.438 | 1.18 | 0.919 | 0.888 | 0.427
201T | 0.929 | 1.02 | 1.06 | 0.844 | 0.67 | 0.962 | 1.04 | 0.972 | 1.01 | 1.03 | 1.02 | 1.04 | 0.979 | 0.86 | 1.08 | 1.11 | 1.07 | 1.11
NCI-H520 | 0.869 | 1.12 | 1.12 | 0.559 | 0.298 | 1.14 | 0.804 | 0.286 | 0.238 | 0.913 | 1.09 | 0.779 | 0.316 | 0.525 | 0.624 | 0.686 | 0.223 | 0.151
NCI-H727 | 0.817 | 0.888 | 0.964 | 0.806 | 0.668 | 0.931 | 1.06 | 1.06 | 0.884 | 0.56 | 0.574 | 0.61 | 0.497 | 0.245 | 0.813 | 0.798 | 0.838 | 0.858
HCC-15 | 0.919 | 1.23 | 1.17 | 0.81 | 0.629 | 0.967 | 1.15 | 1.14 | 1.05 | 0.859 | 0.887 | 0.981 |  | 0.753 | 0.989 | 1.13 | 1.07 | 1.04
NCI-H1563 | 0.904 | 0.971 | 1.01 | 0.928 | 0.539 | 1.07 | 0.995 | 0.983 | 0.904 | 0.938 | 0.996 | 0.924 | 0.682 | 0.634 | 0.917 | 0.958 | 0.838 | 0.691
ABC-1 | 0.761 | 1.06 | 0.895 | 0.619 | 0.535 | 0.802 | 0.934 | 0.832 | 0.659 | 1.3 | 0.963 | 1.29 | 0.821 | 0.518 | 0.265 | 0.32 | 0.312 | 0.309
LCLC-103H | 0.889 | 1.04 | 0.952 | 0.84 | 0.579 | 0.928 | 1.16 | 1.04 | 1 | 0.906 | 1.1 | 0.901 | 0.901 | 0.741 | 1.11 | 1 | 1.07 | 1.04
NCI-H460 | 0.965 | 1.11 | 1.09 | 0.966 | 0.766 | 0.996 | 1.02 | 0.953 | 1.02 | 0.495 | 0.476 | 0.665 |  | 0.0573 | 1.1 | 1.17 | 1.05 | 1.05
EPLC-272H | 0.919 | 0.975 | 1.07 | 0.438 | 0.379 | 0.856 | 1.04 | 1.06 | 1.04 | 0.989 | 1.2 | 0.969 | 0.607 | 0.567 | 0.86 | 1.04 | 0.98 | 1.14
